Assay results as given in US20120029187A1, “HALOALKYLSULFONANILIDE DERIVATIVE” (Nissan Chemical Industries, Ltd., priority 2009, published 2012).

What was measured:
Assay type in all cases: in vivo
barnyardgrass [1] = assay: Test Example 1: herbicidal effects in preemergence treatment under submerged conditions; details: dose 2.52 g/a
Summary of the method: (§1)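 Scoring 0 (<5% mortality) to 5 (≥90%) was done three weeks after preemergence application to the water surface of submerged (4 cm) alluvial soil, doses given as g per are. Weeds were seeded and 2.5-leaf rice transplanted on the treatment day; greenhouse at 25–30 °C.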

bulrush [2] = assay: as above; details: dose 2.52 g/a
Summary of the method: as §1

ducksalad [3] = assay: as above; details: dose 2.52 g/a
Summary of the method: as §1

transplanted rice = assay: Test Example 1: preemergence treatment under submerged conditions, effect on crop; details: dose 2.52 g/a
Summary of the method: as §1

barnyardgrass [4] = assay: Test Example 2: herbicidal effects during the vegetation period under submerged conditions; details: treatment during the vegetation period under submerged conditions; dose 2.52 g/a
Summary of the method: (§2)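 Barnyardgrass, bulrush and ducksalad were co-sown in alluvial soil flooded to 4 cm and grown in a greenhouse at 25 to 30° C. At the 1- or 2-leaf stage, water-diluted emulsifiable concentrates went onto the water surface at set doses (g/a). Herbicidal effect was scored three weeks later on a graded scale.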

bulrush [5] = assay: as above; details: treatment during the vegetation period under submerged conditions; dose 2.52 g/a
Summary of the method: as §2

ducksalad [6] = assay: as above; details: treatment during the vegetation period under submerged conditions; dose 2.52 g/a
Summary of the method: as §2

Italian ryegrass [7] = assay: Test Example 3: herbicidal effects in soil treatment; details: dose 6.3 g/a
Summary of the method: (§3)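 Seeds were sown in sterilized diluvial soil and covered with about 1.5 cm of soil. Compounds, formulated as emulsifiable concentrates and diluted with water, were sprayed evenly over the soil surface at set doses in g/a. Herbicidal effect was scored on a rating scale three weeks later.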

barnyardgrass [8] = assay: as above; details: dose 6.3 g/a
Summary of the method: as §3

common chickweed [9] = assay: as above; details: dose 6.3 g/a
Summary of the method: as §3

common lambsquater [10] = assay: as above; details: dose 6.3 g/a
Summary of the method: as §3

common ragweed [11] = assay: as above; details: dose 6.3 g/a
Summary of the method: as §3

giant foxtail [12] = assay: as above; details: dose 6.3 g/a
Summary of the method: as §3

large crabgrass [13] = assay: as above; details: dose 6.3 g/a
Summary of the method: as §3

water foxtail [14] = assay: as above; details: dose 6.3 g/a
Summary of the method: as §3

wild oat [15] = assay: as above; details: dose 6.3 g/a
Summary of the method: as §3

corn [16] = assay: Test Example 3: soil treatment, effect on crop; details: dose 6.3 g/a
Excerpt: (§4) Test on the Herbicidal Effects in Soil Treatment
(§5) Sterilized diluvial soil was put in plastic boxes with a length of 21 cm, a width of 13 cm and a depth of 7 cm, and seeds of barnyardgrass, large crabgrass, giant foxtail, wild oat, blackgrass, velvetleaf, common ragweed, redroot pigweed, common lambsquater, posumbu knotweed, common chickweed corn, soybean, rice, wheat and sugar beet were sown in spots and covered with an about 1.5 cm-thick soil layer. Emulsifiable concentrates containing compounds of the present invention formulated in accordance with Formulation Example 2 were uniformly applied to the soil surfaces at predetermined doses through a small sprayer after dilute with water. Three weeks after the application, the herbicidal effects against various plants were determined on the same evaluation scale as in Test Example 1.
(§6) A: barnyardgrass, B: bulrush, C: ducksalad, D: large crabgrass, E: giant foxtail, F: wild oat, G: water foxtail, H: Italian ryegrass, I: velvetleaf, J: common ragweed, K: redroot pigweed, L: common lambsquater, M: posumbu knotweed, N: common chickweed, O: beadstraw, a: transplanted rice, b: corn, c: soybean, d: direct-seeded rice, e: wheat, f: sugar beet.
(§7) The doses (g/a) represents the amounts in g per 1 are (a) applied after adjustment of concentration adjustment.

direct-seeded rice [17] = assay: Test Example 3: soil treatment, effect on crop; details: dose 6.3 g/a
Excerpt: as §4, §5, §6, §7

soybean [18] = assay: Test Example 3: soil treatment, effect on crop; details: dose 6.3 g/a
Excerpt: as §4, §5, §6, §7

sugar beet [19] = assay: Test Example 3: soil treatment, effect on crop; details: dose 6.3 g/a
Excerpt: as §4, §5, §6, §7

wheat [20] = assay: Test Example 3: soil treatment, effect on crop; details: dose 6.3 g/a
Excerpt: as §4, §5, §6, §7

Italian ryegrass [21] = assay: Test Example 4: herbicidal effect in foliage treatment; details: dose 6.3 g/a, three weeks after the application
Summary of the method: (§8)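 Foliar spray, post-emergence: 14-day-old greenhouse plants (25–30° C, diluvial soil) treated with water-diluted EC at set g/a doses; visual herbicidal score at 3 wk post-application.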

barnyardgrass [22] = assay: as above; details: dose 6.3 g/a, three weeks after the application
Summary of the method: as §8

beadstraw = assay: as above; details: dose 6.3 g/a, three weeks after the application
Summary of the method: as §8

common chickweed [23] = assay: as above; details: dose 6.3 g/a, three weeks after the application
Summary of the method: as §8

common lambsquater [24] = assay: as above; details: dose 6.3 g/a, three weeks after the application
Summary of the method: as §8

common ragweed [25] = assay: as above; details: dose 6.3 g/a, three weeks after the application
Summary of the method: as §8

giant foxtail [26] = assay: as above; details: dose 6.3 g/a, three weeks after the application
Summary of the method: as §8

large crabgrass [27] = assay: as above; details: dose 6.3 g/a, three weeks after the application
Summary of the method: as §8

water foxtail [28] = assay: as above; details: dose 6.3 g/a, three weeks after the application
Summary of the method: as §8

wild oat [29] = assay: as above; details: dose 6.3 g/a, three weeks after the application
Summary of the method: as §8

corn [30] = assay: Test Example 4: foliage treatment, effect on crop; details: dose 6.3 g/a, three weeks after the application
Excerpt: (§9) Test on the Herbicidal Effect in Foliage Treatment
as §5, with “chickweed,” for “chickweed”, “The boxes were placed in a greenhouse at 25 to 30° C. to grow the plants. After 14 days, emulsifiable” for “Emulsifiable”, “foliage” for “soil surfaces”, “diluted” for “dilute”
as §6, §7

direct-seeded rice [31] = assay: Test Example 4: foliage treatment, effect on crop; details: dose 6.3 g/a, three weeks after the application
Excerpt: as §9
as §5, with “chickweed,” for “chickweed”, “The boxes were placed in a greenhouse at 25 to 30° C. to grow the plants. After 14 days, emulsifiable” for “Emulsifiable”, “foliage” for “soil surfaces”, “diluted” for “dilute”
as §6, §7

soybean [32] = assay: Test Example 4: foliage treatment, effect on crop; details: dose 6.3 g/a, three weeks after the application
Excerpt: as §9
as §5, with “chickweed,” for “chickweed”, “The boxes were placed in a greenhouse at 25 to 30° C. to grow the plants. After 14 days, emulsifiable” for “Emulsifiable”, “foliage” for “soil surfaces”, “diluted” for “dilute”
as §6, §7

sugar beet [33] = assay: Test Example 4: foliage treatment, effect on crop; details: dose 6.3 g/a, three weeks after the application
Excerpt: as §9
as §5, with “chickweed,” for “chickweed”, “The boxes were placed in a greenhouse at 25 to 30° C. to grow the plants. After 14 days, emulsifiable” for “Emulsifiable”, “foliage” for “soil surfaces”, “diluted” for “dilute”
as §6, §7

wheat [34] = assay: Test Example 4: foliage treatment, effect on crop; details: dose 6.3 g/a, three weeks after the application
Excerpt: as §9
as §5, with “chickweed,” for “chickweed”, “The boxes were placed in a greenhouse at 25 to 30° C. to grow the plants. After 14 days, emulsifiable” for “Emulsifiable”, “foliage” for “soil surfaces”, “diluted” for “dilute”
as §6, §7

CCOC(=O)N(c1ccccc1CN1CCOCCC1=O)S(=O)(=O)C(F)(F)F [Compound V-2]
A: barnyardgrass, herbicidal effect (evaluation scale 0-5) (barnyardgrass [1]): 5 (mortality of 90% or above (nearly complete death)) | B: bulrush, herbicidal effect (evaluation scale 0-5) (bulrush [2]): 5 (mortality of 90% or above (nearly complete death)) | C: ducksalad, herbicidal effect (evaluation scale 0-5) (ducksalad [3]): 5 (mortality of 90% or above (nearly complete death)) | a: transplanted rice, effect on crop (evaluation scale 0-5) (transplanted rice): 0 (mortality of less than 5% (almost ineffective)) | A: barnyardgrass, herbicidal effect (evaluation scale 0-5) (barnyardgrass [4]): 4 (mortality of at least 70% and less than 90%) | B: bulrush, herbicidal effect (evaluation scale 0-5) (bulrush [5]): 5 (mortality of 90% or above (nearly complete death)) | C: ducksalad, herbicidal effect (evaluation scale 0-5) (ducksalad [6]): 5 (mortality of 90% or above (nearly complete death)) | herbicidal effect, H: Italian ryegrass (Italian ryegrass [7]): 0 (mortality of less than 5% (almost ineffective)) | herbicidal effect, A: barnyardgrass (barnyardgrass [8]): 4 (mortality of at least 70% and less than 90%) | herbicidal effect, N: common chickweed (common chickweed [9]): 5 (mortality of 90% or above (nearly complete death)) | herbicidal effect, L: common lambsquater (common lambsquater [10]): 5 (mortality of 90% or above (nearly complete death)) | herbicidal effect, J: common ragweed (common ragweed [11]): 5 (mortality of 90% or above (nearly complete death)) | herbicidal effect, E: giant foxtail (giant foxtail [12]): 3 (mortality of at least 40% and less than 70%) | herbicidal effect, D: large crabgrass (large crabgrass [13]): 1 (mortality of at least 5% and less than 20%) | herbicidal effect, G: water foxtail (water foxtail [14]): 5 (mortality of 90% or above (nearly complete death)) | herbicidal effect, F: wild oat (wild oat [15]): 0 (mortality of less than 5% (almost ineffective)) | effect on crop, b: corn (corn [16]): 0 (mortality of less than 5% (almost ineffective)) | effect on crop, d: direct-seeded rice (direct-seeded rice [17]): 0 (mortality of less than 5% (almost ineffective)) | effect on crop, c: soybean (soybean [18]): 0 (mortality of less than 5% (almost ineffective)) | effect on crop, f: sugar beet (sugar beet [19]): 4 (mortality of at least 70% and less than 90%) | effect on crop, e: wheat (wheat [20]): 0 (mortality of less than 5% (almost ineffective)) | H: Italian ryegrass, herbicidal effect (Italian ryegrass [21]): 0 (mortality of less than 5% (almost ineffective)) | A: barnyardgrass, herbicidal effect (barnyardgrass [22]): 5 (mortality of 90% or above (nearly complete death)) | O: beadstraw, herbicidal effect (beadstraw): 3 (mortality of at least 40% and less than 70%) | N: common chickweed, herbicidal effect (common chickweed [23]): 4 (mortality of at least 70% and less than 90%) | L: common lambsquater, herbicidal effect (common lambsquater [24]): 5 (mortality of 90% or above (nearly complete death)) | J: common ragweed, herbicidal effect (common ragweed [25]): 5 (mortality of 90% or above (nearly complete death)) | E: giant foxtail, herbicidal effect (giant foxtail [26]): 4 (mortality of at least 70% and less than 90%) | D: large crabgrass, herbicidal effect (large crabgrass [27]): 2 (mortality of at least 20% and less than 40%) | G: water foxtail, herbicidal effect (water foxtail [28]): 5 (mortality of 90% or above (nearly complete death)) | F: wild oat, herbicidal effect (wild oat [29]): 0 (mortality of less than 5% (almost ineffective)) | b: corn, effect on crop (corn [30]): 1 (mortality of at least 5% and less than 20%) | d: direct-seeded rice, effect on crop (direct-seeded rice [31]): 3 (mortality of at least 40% and less than 70%) | c: soybean, effect on crop (soybean [32]): 3 (mortality of at least 40% and less than 70%) | f: sugar beet, effect on crop (sugar beet [33]): 3 (mortality of at least 40% and less than 70%) | e: wheat, effect on crop (wheat [34]): 0 (mortality of less than 5% (almost ineffective))
